Results: patent US10993941B2, “Methods for the administration of certain VMAT2 inhibitors” (Neurocrine Biosciences, Inc., priority 2017, dated 2021)
“Also recorded” adds a separate entry of the source. One block for each molecule: values may come before it.

Legend:
human VMAT1 transporter = molecular target: T1, human VMAT1 transporter (Homo sapiens, UniProt P54219); experiment: Uptake in cells expressing VMAT1; type: cell-based; conditions: concentrations up to 10 μM
T1 construct: expressed in transfected cells
T1 sequence (P54219 1-525): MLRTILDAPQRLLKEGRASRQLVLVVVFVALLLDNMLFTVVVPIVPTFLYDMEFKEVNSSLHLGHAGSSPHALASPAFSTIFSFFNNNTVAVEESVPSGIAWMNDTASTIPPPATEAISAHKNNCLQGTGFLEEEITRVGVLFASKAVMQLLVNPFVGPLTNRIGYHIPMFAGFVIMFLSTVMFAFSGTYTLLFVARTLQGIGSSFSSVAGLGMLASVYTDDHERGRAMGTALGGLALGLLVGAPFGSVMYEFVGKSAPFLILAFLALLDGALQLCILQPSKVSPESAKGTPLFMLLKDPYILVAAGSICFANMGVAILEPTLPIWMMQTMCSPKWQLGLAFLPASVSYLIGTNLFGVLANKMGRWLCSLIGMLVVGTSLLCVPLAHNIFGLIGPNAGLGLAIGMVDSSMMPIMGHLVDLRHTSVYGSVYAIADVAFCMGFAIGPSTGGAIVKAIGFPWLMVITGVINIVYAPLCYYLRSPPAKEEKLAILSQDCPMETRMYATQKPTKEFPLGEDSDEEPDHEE
Procedure: None of the TBZ or VBZ metabolites had any affinity for the monoamine transporters DAT, SERT or NET. To complete the selectivity profile for VMAT2, the functional activity for the human VMAT1 transporter of these compounds was tested in cells expressing VMAT1.

[1] = tested on: dopamine, serotonin and adrenergic receptor subtypes; experiment: Detailed radioligand binding assays, monoamine receptor subtypes
ptosis = experiment: Ptosis, in vivo surrogate measure
serum prolactin = experiment: Prolactin release, in vivo surrogate measure
[2] = both, human, in vivo
From the text: (§1) Overall, 24 male and female subjects were enrolled, including 6 subjects with normal hepatic function (Group I), 6 with mild stable hepatic impairment (Group II), 6 with moderate stable hepatic impairment (Group III), and 6 with severe stable hepatic impairment (Group IV). […] All subjects were genotyped to determine their cytochrome P450 2D6 (CYP2D6) status.
(§2) The Child-Pugh scale was used to categorize the degree of hepatic impairment for assignment into the mild (score of 5-6), moderate (score of 7-9), and severe hepatic impairment (score of 10-15) groups.
(§3) After providing informed consent, subjects were screened for eligibility within 28 days of study drug dosing on Day 1. Eligible subjects were admitted to the center in the morning (Day −1), before the dosing day and remained confined in the center for 4 days. Subjects were discharged on Day 4, after the collection of the 72-hour PK sample and safety assessments. On the morning of Days 5 and 6, subjects returned to the center for a PK sample collection and safety assessments; a final study visit was conducted on Day 8 (7 days postdose).
(§4) Safety assessments were conducted at scheduled times throughout the study.

clinical = conditions: both, human, in vivo
From the text: as §1, §2, §3, §4

[3] = tested on: more than 80 targets including GPCRs, cell-surface monoamine transporters, and ion channels including HERG; experiment: Multi-target activity screen (Cerep screen); conditions: receptors
[4] = Phase 1 single-dose safety and tolerability (adverse events, laboratory tests, vital signs, ECG); type: in vivo, human; conditions: NBI-98854 50 mg single dose; for Abdominal discomfort / Adverse events: Overall / Back pain / Constipation / Dyspepsia / Epistaxis / Gastrointestinal Disorders / General Disorders and Administrative Site Conditions / Haemorrhoids / Headache / Infections and Infestations / Musculoskeletal and Connective Tissue Disorders / Nausea / Nervous System Disorders / Rash / Respiratory, Thoracic, and Mediastinal Disorders / Rhinitis / Skin and Subcutaneous Tissue Disorders / Vessel puncture site haematoma: subjects n (%)
VMAT2 [5] = molecular target: T2, VMAT2 (Rattus norvegicus, UniProt Q01827); experiment: Inhibition of [3H]-DHTBZ binding to rat striatal membranes; conditions: Rat Striatum
T2 construct: from tissue; host or cells: rat forebrain membranes
T2 sequence (Q01827 whole entry): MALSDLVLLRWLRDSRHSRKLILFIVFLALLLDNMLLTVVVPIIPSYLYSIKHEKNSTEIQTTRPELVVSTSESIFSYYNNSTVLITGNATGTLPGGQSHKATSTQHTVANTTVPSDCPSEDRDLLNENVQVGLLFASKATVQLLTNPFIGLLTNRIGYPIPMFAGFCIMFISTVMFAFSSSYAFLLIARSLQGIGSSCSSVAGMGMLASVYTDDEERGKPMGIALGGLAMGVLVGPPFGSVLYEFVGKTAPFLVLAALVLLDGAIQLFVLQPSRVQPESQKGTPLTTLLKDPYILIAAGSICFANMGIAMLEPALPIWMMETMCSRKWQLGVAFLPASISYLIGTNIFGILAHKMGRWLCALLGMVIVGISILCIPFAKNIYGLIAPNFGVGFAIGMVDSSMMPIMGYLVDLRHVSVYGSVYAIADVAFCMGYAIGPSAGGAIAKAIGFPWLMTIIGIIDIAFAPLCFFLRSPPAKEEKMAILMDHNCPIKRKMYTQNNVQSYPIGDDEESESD

VMAT2 [6] = molecular target: T3, VMAT2 (Homo sapiens, UniProt Q05940); experiment: Inhibition of [3H]-DHTBZ binding to human platelets
T3 construct: from tissue; host or cells: human platelets (homogenates)
T3 sequence (Q05940 whole entry): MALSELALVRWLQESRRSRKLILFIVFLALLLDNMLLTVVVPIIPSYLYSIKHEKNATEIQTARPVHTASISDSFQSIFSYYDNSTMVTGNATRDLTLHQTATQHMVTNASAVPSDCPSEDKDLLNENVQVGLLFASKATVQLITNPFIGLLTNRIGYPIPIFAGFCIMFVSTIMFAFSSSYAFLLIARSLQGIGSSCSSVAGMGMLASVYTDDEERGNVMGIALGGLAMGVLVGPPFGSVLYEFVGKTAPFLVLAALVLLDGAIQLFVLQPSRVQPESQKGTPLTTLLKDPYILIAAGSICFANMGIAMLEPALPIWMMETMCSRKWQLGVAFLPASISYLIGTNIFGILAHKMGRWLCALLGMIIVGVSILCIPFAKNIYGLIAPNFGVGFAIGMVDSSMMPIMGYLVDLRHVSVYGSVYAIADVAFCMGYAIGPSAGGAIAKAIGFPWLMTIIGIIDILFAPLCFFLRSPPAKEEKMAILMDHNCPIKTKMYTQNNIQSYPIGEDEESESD

SMILES: COc1cc2c(cc1OC)[C@H]1C[C@@H](O)[C@H](CC(C)C)CN1CC2 [NBI-98782, (2R,3R,11bR)-3-isobutyl-9,10-dimethoxy-1,3,4,6,7,11b-hexahydro-2H-pyrido[2,1-a]isoquinolin-2-ol]
inhibition of uptake through VMAT1 (human VMAT1 transporter; listed as R,R,R-DHTBZ): no significant inhibitory activity; also recorded: no significant effect on the uptake of monoamines through VMAT1
specificity for the VMAT2 transporter versus monoamine receptor subtypes [1]: high specificity
induction of ptosis (ptosis): induced ptosis in an equivalent manner
increase in serum prolactin levels (serum prolactin): induced a similar increase in serum prolactin levels as TBZ
increase in AUC0-∞ [2]: approximately 3.5 fold
increase in t1/2 with hepatic impairment [2]: < 2 fold
increase in tmax with hepatic impairment [2]: < 2 fold
mean Tlag [2]: 0.42 to 0.67 h
MRT (clinical): 36 to 53 h
MRT (clinical; po, 50 mg): 36 h
affinity for more than 80 binding sites [3]: little to no affinity

SMILES: COc1cc2c(cc1OC)[C@H]1C[C@@H](OC(=O)[C@@H](N)C(C)C)[C@H](CC(C)C)CN1CC2 [NBI-98854, (S)-2-amino-3-methyl-butyric acid (2R,3R,11bR)-3-isobutyl-9,10-dimethoxy-1,3,4,6,7,11b-hexahydro-2H-pyrido[2,1-a]isoquinolin-2-yl ester]
Abdominal discomfort ([4]; Mild (N = 6)): 0
Adverse events: Overall ([4]; Mild (N = 6)): 2 (33.3%)
Back pain ([4]; Mild (N = 6)): 0
Constipation ([4]; Mild (N = 6)): 0
Dyspepsia ([4]; Mild (N = 6)): 0
Epistaxis ([4]; Mild (N = 6)): 0
Gastrointestinal Disorders ([4]; Mild (N = 6)): 1 (16.7%)
General Disorders and Administrative Site Conditions ([4]; Mild (N = 6)): 0
Haemorrhoids ([4]; Mild (N = 6)): 1 (16.7%)
Headache ([4]; Mild (N = 6)): 1 (16.7%)
Infections and Infestations ([4]; Mild (N = 6)): 1 (16.7%)
Musculoskeletal and Connective Tissue Disorders ([4]; Mild (N = 6)): 0
Nausea ([4]; Mild (N = 6)): 0
Nervous System Disorders ([4]; Mild (N = 6)): 1 (16.7%)
Rash ([4]; Mild (N = 6)): 0
Respiratory, Thoracic, and Mediastinal Disorders ([4]; Mild (N = 6)): 0
Rhinitis ([4]; Mild (N = 6)): 1 (16.7%)
Skin and Subcutaneous Tissue Disorders ([4]; Mild (N = 6)): 0
Vessel puncture site haematoma ([4]; Mild (N = 6)): 0
Abdominal discomfort ([4]; Moderate (N = 6)): 0
Adverse events: Overall ([4]; Moderate (N = 6)): 2 (33.3%)
Back pain ([4]; Moderate (N = 6)): 1 (16.7%)
Constipation ([4]; Moderate (N = 6)): 1 (16.7%)
Dyspepsia ([4]; Moderate (N = 6)): 0
Epistaxis ([4]; Moderate (N = 6)): 0
Gastrointestinal Disorders ([4]; Moderate (N = 6)): 1 (16.7%)
General Disorders and Administrative Site Conditions ([4]; Moderate (N = 6)): 0
Haemorrhoids ([4]; Moderate (N = 6)): 0
Headache ([4]; Moderate (N = 6)): 0
Infections and Infestations ([4]; Moderate (N = 6)): 0
Musculoskeletal and Connective Tissue Disorders ([4]; Moderate (N = 6)): 1 (16.7%)
Nausea ([4]; Moderate (N = 6)): 0
Nervous System Disorders ([4]; Moderate (N = 6)): 0
Rash ([4]; Moderate (N = 6)): 1 (16.7%)
Respiratory, Thoracic, and Mediastinal Disorders ([4]; Moderate (N = 6)): 0
Rhinitis ([4]; Moderate (N = 6)): 0
Skin and Subcutaneous Tissue Disorders ([4]; Moderate (N = 6)): 1 (16.7%)
Vessel puncture site haematoma ([4]; Moderate (N = 6)): 0
Abdominal discomfort ([4]; Normal (N = 6)): 1 (16.7%)
Adverse events: Overall ([4]; Normal (N = 6)): 2 (33.3%)
Back pain ([4]; Normal (N = 6)): 0
Constipation ([4]; Normal (N = 6)): 0
Dyspepsia ([4]; Normal (N = 6)): 0
Epistaxis ([4]; Normal (N = 6)): 0
Gastrointestinal Disorders ([4]; Normal (N = 6)): 1 (16.7%)
General Disorders and Administrative Site Conditions ([4]; Normal (N = 6)): 1 (16.7%)
Haemorrhoids ([4]; Normal (N = 6)): 0
Headache ([4]; Normal (N = 6)): 0
Infections and Infestations ([4]; Normal (N = 6)): 0
Musculoskeletal and Connective Tissue Disorders ([4]; Normal (N = 6)): 0
Nausea ([4]; Normal (N = 6)): 0
Nervous System Disorders ([4]; Normal (N = 6)): 0
Rash ([4]; Normal (N = 6)): 0
Respiratory, Thoracic, and Mediastinal Disorders ([4]; Normal (N = 6)): 0
Rhinitis ([4]; Normal (N = 6)): 0
Skin and Subcutaneous Tissue Disorders ([4]; Normal (N = 6)): 0
Vessel puncture site haematoma ([4]; Normal (N = 6)): 1 (16.7%)
Abdominal discomfort ([4]; Severe (N = 6)): 0
Adverse events: Overall ([4]; Severe (N = 6)): 2 (33.3%)
Back pain ([4]; Severe (N = 6)): 0
Constipation ([4]; Severe (N = 6)): 0
Dyspepsia ([4]; Severe (N = 6)): 1 (16.7%)
Epistaxis ([4]; Severe (N = 6)): 1 (16.7%)
Gastrointestinal Disorders ([4]; Severe (N = 6)): 1 (16.7%)
General Disorders and Administrative Site Conditions ([4]; Severe (N = 6)): 0
Haemorrhoids ([4]; Severe (N = 6)): 0
Headache ([4]; Severe (N = 6)): 0
Infections and Infestations ([4]; Severe (N = 6)): 0
Musculoskeletal and Connective Tissue Disorders ([4]; Severe (N = 6)): 0
Nausea ([4]; Severe (N = 6)): 1 (16.7%)
Nervous System Disorders ([4]; Severe (N = 6)): 0
Rash ([4]; Severe (N = 6)): 0
Respiratory, Thoracic, and Mediastinal Disorders ([4]; Severe (N = 6)): 1 (16.7%)
Rhinitis ([4]; Severe (N = 6)): 0
Skin and Subcutaneous Tissue Disorders ([4]; Severe (N = 6)): 0
Vessel puncture site haematoma ([4]; Severe (N = 6)): 0
intensity of TEAEs judged by the investigator ([4]; all TEAEs): mild in intensity
changes in clinical laboratory tests, vital signs measurements, or ECG parameters ([4]; all groups): no clinically significant changes
deaths, serious or severe TEAEs ([4]; all groups): No deaths, serious or severe treatment-emergent adverse events (TEAEs) were reported; also recorded: No deaths, serious TEAEs, or discontinuations due to an AE were reported
discontinuation due to a TEAE ([4]; all groups): no subject discontinued the study due to a TEAE
tolerability ([4]; normal subjects and subjects with hepatic impairment): well-tolerated
Treatment-related AEs (possibly or definitely related to study drug) ([4]; of 24 subjects): 4 subjects
Affinity Relative to R,R,R-DHTBZ (VMAT2 [5]): 39
Affinity Relative to R,R,R-DHTBZ (VMAT2 [6]): 45
inhibition of uptake through VMAT1 (human VMAT1 transporter; listed as VBZ): no significant inhibitory activity; also recorded: no significant effect on the uptake of monoamines through VMAT1
induction of ptosis (ptosis): induced ptosis in an equivalent manner
increase in serum prolactin levels (serum prolactin): to a lesser extent
increase in Cmax [2]: 2-3 fold
increase in t1/2 with hepatic impairment [2]: < 2 fold
increase in tmax with hepatic impairment [2]: < 2 fold
mean Tlag [2]: 0.17 to 0.38 h
MRT (clinical): 23 to 30 h
half-life (clinical; mean t1/2): 21 to 22 h
MRT (clinical; po, 50 mg): 24 h
Tmax (clinical; po, 50 mg, TMAX): 1.1 h
Vd/F (clinical; po, 50 mg, Vz/F): 600 L
half-life (clinical; po, 50 mg, t1/2): 28 h
affinity for more than 80 binding sites [3]: little to no affinity

increase in AUC0-∞ [2]: < 2 fold
increase in Cmax [2]: < 2 fold
increase in t1/2 with hepatic impairment [2]: < 2 fold
increase in tmax with hepatic impairment [2]: < 2 fold
mean Tlag [2]: 0.33 to 0.54 h
mean molar ratio of plasma AUC0-∞ for NBI-136110 versus NBI-98854 [2]: 28.3-37.3%
MRT (clinical): 51 to 81 h
half-life (clinical; mean t1/2): 33 to 36 h
Tmax (clinical; median tmax): 2.5 to 4 h
AUC(0-t) (clinical; po, 50 mg, AUC0-24): 363 ng·h/mL
AUC(0-t) (clinical; po, 50 mg, AUC0-TLAST): 928 ng·h/mL
AUC(0-inf) (clinical; po, 50 mg, AUC0-∞): 1030 ng·h/mL
Cmax (clinical; po, 50 mg, CMAX): 32.5 ng/mL
MRT (clinical; po, 50 mg): 53 h
Tmax (clinical; po, 50 mg, TMAX): 4 h
half-life (clinical; po, 50 mg, t1/2): 57 h
SMILES: COc1cc2c(cc1OC)[C@H]1C[C@@H](OC(=O)[C@@H](N)C(C)(C)O)[C@H](CC(C)C)CN1CC2 [NBI-136110]
affinity for more than 80 binding sites [3]: little to no affinity
